# Measurements taken from US11077100B2, “Tetrahydroquinoline derivatives as P2X7 receptor antagonists” (RaQualia Pharma Inc., priority 2017, dated 2021).
# Tests used:
# human P2X7 = human P2X7 (Homo sapiens (Human), UniProt Q99572); experiment: Human P2X7 functional assay (Ca2+ influx, Fluo-4, FDSS); type: cell-based; settings: antagonistic activity with respect to the human P2X7 receptor; BzATP final concentration 80 microM
# Procedure, shortened: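 Ca2+ influx was triggered with BzATP (80 μM final) after a 10-min room-temperature compound preincubation and monitored with Fluo-4 (ex 480/em 540 nm) on FDSS. The cells were HEK293 stably carrying FLAG-tagged human P2X7. Duplicate-averaged 7-point dose-responses gave IC50s.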
# rat P2X7 = rat P2X7 (Rattus norvegicus (Rat), UniProt Q64663); experiment: Rat P2X7 functional assay (Ca2+ influx, Fluo-4, FDSS); type: cell-based; settings: HEK293 cells stably expressing rat P2X7; BzATP final 10 microM; 7-point dose-response; read-out: Antagonistic activities with respect to the rat P2X7 receptor (IC50)
# Procedure, shortened: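 IC50 derived from 7-point dose-response in duplicate, measuring inhibition of BzATP-evoked (final 10 microM) intracellular Ca2+ increase by Fluo-4 fluorescence on FDSS. Rat P2X7-HEK293 cells were exposed to compound for 10 min in the dark beforehand.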
# Sequence of rat P2X7 (Q64663 whole entry): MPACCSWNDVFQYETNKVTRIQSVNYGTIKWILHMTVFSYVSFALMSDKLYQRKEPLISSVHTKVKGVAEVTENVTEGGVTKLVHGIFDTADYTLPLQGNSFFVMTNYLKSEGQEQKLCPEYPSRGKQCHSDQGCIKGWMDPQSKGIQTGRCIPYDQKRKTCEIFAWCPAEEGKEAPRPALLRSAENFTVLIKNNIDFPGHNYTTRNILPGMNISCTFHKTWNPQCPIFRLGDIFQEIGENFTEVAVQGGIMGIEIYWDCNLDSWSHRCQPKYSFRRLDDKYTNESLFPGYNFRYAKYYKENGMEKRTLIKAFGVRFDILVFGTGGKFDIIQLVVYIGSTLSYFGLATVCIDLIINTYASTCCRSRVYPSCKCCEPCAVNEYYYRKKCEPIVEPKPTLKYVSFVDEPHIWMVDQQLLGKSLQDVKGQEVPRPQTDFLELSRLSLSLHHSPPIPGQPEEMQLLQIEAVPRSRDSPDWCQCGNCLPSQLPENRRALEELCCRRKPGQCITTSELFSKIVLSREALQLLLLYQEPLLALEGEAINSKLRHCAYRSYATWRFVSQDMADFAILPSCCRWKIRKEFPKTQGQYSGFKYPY
# Sequence of human P2X7 (Q99572 whole entry): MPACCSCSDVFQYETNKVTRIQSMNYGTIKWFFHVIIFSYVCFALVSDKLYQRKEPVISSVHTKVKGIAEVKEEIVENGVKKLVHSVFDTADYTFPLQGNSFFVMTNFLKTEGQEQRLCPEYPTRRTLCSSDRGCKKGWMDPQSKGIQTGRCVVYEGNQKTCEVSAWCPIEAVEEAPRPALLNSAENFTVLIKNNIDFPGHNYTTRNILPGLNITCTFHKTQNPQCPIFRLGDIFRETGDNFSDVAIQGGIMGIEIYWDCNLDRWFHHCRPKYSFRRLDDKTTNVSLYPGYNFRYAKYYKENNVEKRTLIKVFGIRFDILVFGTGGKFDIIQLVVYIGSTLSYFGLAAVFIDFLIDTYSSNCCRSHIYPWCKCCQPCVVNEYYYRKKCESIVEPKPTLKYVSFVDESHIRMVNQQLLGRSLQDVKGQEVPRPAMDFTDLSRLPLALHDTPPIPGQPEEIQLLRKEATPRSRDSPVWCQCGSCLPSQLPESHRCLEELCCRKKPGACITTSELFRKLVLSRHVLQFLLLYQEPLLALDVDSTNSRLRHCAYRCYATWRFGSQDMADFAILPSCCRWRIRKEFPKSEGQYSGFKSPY
Structure (SMILES),IC50 (human P2X7) [nM],IC50 (rat P2X7) [nM]
"O=C(NCc1ccc(Cl)cc1Cl)[C@@]1(F)CC[C@](O)(CO)c2ncccc21 [Example 302, (5R,8R)-N-(2,4-dichlorobenzyl)-5-fluoro-8-hydroxy-8-(hydroxymethyl)-5,6,7,8-tetrahydroquinoline-5-carboxamide]",101 to 300,< 1000
"O=C(NCc1cccc(C(F)(F)F)c1Cl)[C@@]1(F)CC[C@@H](O)c2ncccc21 [Example 128, (5R,8R)-N-(2-chloro-3-(trifluoromethyl)benzyl)-5-fluoro-8-hydroxy-5,6,7,8-tetrahydroquinoline-5-carboxamide]",< 50,< 1000
"O=C(NCc1ccc(Br)cc1Cl)[C@]1(F)CC[C@@H](O)c2ncccc21 [Example 118, (5S,8R)-N-(4-bromo-2-chlorobenzyl)-5-fluoro-8-hydroxy-5,6,7,8-tetrahydroquinoline-5-carboxamide]",< 50,< 1000
"O=C(NCc1cccc(Cl)c1Cl)[C@]1(F)CC[C@H](O)c2ncccc21 [Example 159, (5S,8S)-N-(2,3-dichlorobenzyl)-5-fluoro-8-hydroxy-5,6,7,8-tetrahydroquinoline-5-carboxamide]",< 50,< 1000
"O=C(NCc1c(Cl)cc(Cl)cc1CO)[C@]1(F)CC[C@@](O)(CO)c2ncccc21 [Example 316, (5S,8S)-N-(2,4-dichloro-6-(hydroxymethyl)benzyl)-5-fluoro-8-hydroxy-8-(hydroxymethyl)-5,6,7,8-tetrahydroquinoline-5-carboxamide]",< 50,< 1000
"C[C@]1(O)CC[C@@](F)(C(=O)NCc2c(Cl)cc(Cl)cc2CO)c2cccnc21 [Example 261, (5S,8S)-N-(2,4-dichloro-6-(hydroxymethyl)benzyl)-5-fluoro-8-hydroxy-8-methyl-5,6,7,8-tetrahydroquinoline-5-carboxamide]",< 50,< 1000
"Cc1cc(Cl)cc(Cl)c1CNC(=O)C1(F)CCC(O)(CN(C)C)c2ncccc21 (stereo not drawn) [Example 47, N-(2,4-dichloro-6-meth-ylbenzyl)-8-((dimeth-ylamino)meth-yl)-5-fluoro-8-hydroxy-5,6,7,8-tetrahydroquinoline-5-carboxamide]",< 50,< 1000
"O=C(NCc1ccc(F)cc1Cl)[C@]1(F)CC[C@H](OCCO)c2ncccc21 [Example 344, (5S,8S)-N-(2-chloro-4-fluorobenzyl)-5-fluoro-8-(2-hydroxyethoxy)-5,6,7,8-tetrahydroquinoline-5-carboxamide]",< 50,< 1000
"O=C(NCc1ccc(Cl)cc1Cl)[C@@]1(F)CC[C@@](O)(CO)c2ncccc21 [Example 303, (5R,8S)-N-(2,4-dichlorobenzyl)-5-fluoro-8-hydroxy-8-(hydroxymethyl)-5,6,7,8-tetrahydroquinoline-5-carboxamide]",1000 to 3000,< 1000
"O=C(NCC1(c2ccc(Cl)cc2Cl)CCOCC1)[C@]1(F)CC[C@H](O)c2ncccc21 [Example 240, (5S,8S)-N-((4-(2,4-dichlorophenyl)tetrahydro-2H-pyran-4-yl)methyl)-5-fluoro-8-hydroxy-5,6,7,8-tetrahydroquinoline-5-carboxamide]",301 to 1000,< 1000
"O=C(NCc1c(F)ccc(Cl)c1F)[C@]1(F)CC[C@H](O)c2ncccc21 [Example 193, (5S,8S)-N-(3-chloro-2,6-difluorobenzyl)-5-fluoro-8-hydroxy-5,6,7,8-tetrahydroquinoline-5-carboxamide]",< 50,< 1000
"O=C(NCc1cccc(Cl)c1F)[C@]1(F)CC[C@H](O)c2ncccc21 [Example 190, (5S,8S)-N-(3-chloro-2-fluorobenzyl)-5-fluoro-8-hydroxy-5,6,7,8-tetrahydroquinoline-5-carboxamide]",< 50,< 1000
"CO[C@H]1CC[C@@](F)(C(=O)NCc2ccc(F)c(F)c2F)c2cccnc21 [Example 339, (5S,8S)-5-fluoro-8-methoxy-N-(2,3,4-trifluorobenzyl)-5,6,7,8-tetrahydroquinoline-5-carboxamide]",< 50,< 1000
"O=C(NCc1c(Cl)cc(F)cc1CO)[C@]1(F)CC[C@H](O)c2ncccc21 [Example 150, (5S,8S)-N-(2-chloro-4-fluoro-6-(hydroxymethyl)benzyl)-5-fluoro-8-hydroxy-5,6,7,8-tetrahydroquinoline-5-carboxamide]",< 50,< 1000
"O=C(NCc1ccc(F)c(Cl)c1F)[C@]1(F)CC[C@H](O)c2ncccc21 [Example 185, (5S,8S)-N-(3-chloro-2,4-difluorobenzyl)-5-fluoro-8-hydroxy-5,6,7,8-tetrahydroquinoline-5-carboxamide]",< 50,< 1000
"O=C1CO[C@@]2(CC[C@@](F)(C(=O)NCc3ccc(Cl)cc3Cl)c3cccnc32)CN1 [Example 294, (2S,5′S)-N-(2,4-dichlorobenzyl)-5′-fluoro-5-oxo-6′,7′-dihydro-5′H-spiro [morpholine-2,8′-quinoline]-5′-carboxamide]",50 to 100,< 1000
"C[C@]1(O)CC[C@@](F)(C(=O)NCc2ccc(F)cc2F)c2cccnc21 [Example 263, (5S,8S)-N-(2,4-difluorobenzyl)-5-fluoro-8-hydroxy-8-methyl-5,6,7,8-tetrahydroquinoline-5-carboxamide]",< 50,< 1000
"O=C1CC[C@@](F)(C(=O)NCc2c(F)cc(Cl)cc2Cl)c2cccnc21 [Example 251, (S)-N-(2,4-dichloro-6-fluorobenzyl)-5-fluoro-8-oxo-5,6,7,8-tetrahydro-quinoline-5-carboxamide]",< 50,< 1000
"COCC1(O)CCC(F)(C(=O)NCc2cccc(C(F)(F)F)c2Cl)c2cccnc21 (stereo not drawn) [Example 40, N-(2-chloro-3-(tri-fluoromethyl)benzyl)-5-fluoro-8-hydroxy-8-(methoxy-methyl)-5,6,7,8-tetra-hydroquinoline-5-carboxamide]",< 50,< 1000
"O=C(NCc1ccc(F)cc1Cl)[C@]1(F)CC[C@@](O)(CS(=O)(=O)CCO)c2ncccc21 [Example 301, (5S,8S)-N-(2-chloro-4-fluorobenzyl)-5-fluoro-8-hydroxy-8-(((2-hydroxyethyl)sulfonyl)methyl)-5,6,7,8-tetrahydroquinoline-5-carboxamide]",50 to 100,< 1000
"O=C(NCc1ccc(Cl)cc1Cl)C1(F)CCC(O)c2ncccc21 (stereo not drawn) [Example 22, N-(2,4-dichlorobenzyl)-5-fluoro-8-hydroxy-5,6,7,8-tetrahydroquinoline-5-carboxamide]",< 50,< 1000
"Cc1cc(Cl)cc(Cl)c1CNC(=O)C1CCC(O)c2ncccc21 (stereo not drawn) [Example 6, N-(2,4-dichloro-6-methyl-benzyl)-8-hydroxy-5,6,7,8-tetrahydroquinoline-5-carboxamide]",< 50,< 1000
"O=C(NCc1cccc(C(F)(F)F)c1Cl)C1CCC(O)c2ncccc21 (stereo not drawn) [Example 7, N-(2-chloro-3-(trifluoromethyl)benzyl)-8-hydroxy-5,6,7,8-tetrahydro-quinoline-5-carboxamide]",< 50,< 1000
"O=C(NCc1ccc(Br)cc1F)[C@]1(F)CC[C@H](O)c2ncccc21 [Example 182, (5S,8S)-N-(4-bromo-2-fluorobenzyl)-5-fluoro-8-hydroxy-5,6,7,8-tetrahydroquinoline-5-carboxamide]",< 50,< 1000
